Patent US20240325420A1, “COMPOSITION INCLUDING PAEONIFLORIN FOR PREVENTION OR TREATMENT OF CACHEXIA AND MUSCLE LOSS” (CHUNG ANG UNIVERSITY INDUSTRY ACADEMIC COOPERATION …, priority 2021, published 2024)

What was measured:
Assay type in all cases: in vivo
[1] = system: myosin heavy chain (MyHC) and myoblast determination protein (MyoD); assay: Protein levels of MyHC and MyoD in gastrocnemius muscle by Western blotting; conditions: C57BL/6 mice, cisplatin-treated, Pae 10 and Pae 20 vs vehicle
Method: (§1) In addition, cisplatin-treated mice orally administered the same volume of distilled water were designated as the vehicle group. After completion of drug treatment, the mice of each group were euthanized with 10 mg/kg alfaxalone (Jurox, Rutherford, Australia). Blood was collected in test tubes containing EDTA, and centrifuged, and plasma was separated therefrom. Gastrocnemius and quadriceps skeletal muscles were dissected and weighed. The skeletal muscles were rapidly frozen in liquid nitrogen to be used for RT-qPCR, Western blotting, and ELISA.
Proteins were extracted from skeletal muscle using NucleoSpin kits (Macherey-Nagel, Duren, Germany) and quantified using the BCA Protein Assay Kit (Pierce, Rockford, IL, USA). Anti-β-actin antibody was used to quantify protein loading. For myosin protein (MyHC, myosin heavy chain), myogenic factor (MyoD), and NF-κB signaling system (p-IKK, IKK, p-IκB, and IκB), protein levels in the gastrocnemius muscle were measured by Western blotting. Band intensities were quantified using ImageJ software (NIH, Bethesda, MD, USA).
(§2) In order to measure the mRNA and protein levels of major factors involved in muscle loss, muscle contraction, and muscle differentiation, the mRNA and protein levels in the skeletal muscle tissues from C57BL/6 mice were measured by real-time PCR and Western blotting.

[2] = system: C57BL/6 mice with Lewis lung carcinoma-induced cachexia; assay: Muscle strength and endurance in C57BL/6 mice with Lewis lung carcinoma-induced cachexia
Method: (§3) As the experimental animals, 4-week-old female C57BL/6 mice and Balb/c mice weighing 18 g to 20 g were purchased from Raon Bio (Yongin, Korea), acclimatized in the laboratory animal facility for one week, and then used in the experiment. During the experiment period, the animals were provided with solid feed and water ad libitum, and the breeding room was maintained at a temperature of 20° C. to 24° C. and a relative humidity of 55% to 65% with a 12-hr light/12-hr dark cycle.
(§4) Mice were divided into a control group and a cachexia-induced group, and the cachexia-induced group was subdivided into a tumor cell-injected group, a tumor cell-injected and existing drug (MA, megestrol acetate)-administered group, and tumor cell-injected and paeoniflorin (Pae)-administered groups. Each group consisted of 10 animals.
(§5) Each mouse of the control group was injected subcutaneously with 100 μL of saline solution. For the cachexia-induced groups, Lewis lung carcinoma cells (C57BL/6 mice) or colon-26 carcinoma cells (Balb/c mice) were injected subcutaneously into the flank area of each mouse at a dose of 10^6 cells/100 μL/mouse. […] After completion of 9 days of administration, the muscle strength of the mice was measured using a grip strength test device (Bioseb, USA), and the endurance of the mice was measured using a treadmill device (Columbus Instrument, USA).

[3] = system: Balb/c mice with colon-26 carcinoma-induced cachexia; assay: Muscle strength and endurance in Balb/c mice with colon-26 carcinoma-induced cachexia; conditions: colon-26 carcinoma-injected, paeoniflorin orally for 9 days
Method: as §3, §4, §5

TNF-α = assay: Plasma TNF-α by ELISA in mice with cisplatin-induced cachexia; conditions: C57B/6 mice; cisplatin plus paeoniflorin-treated group vs cisplatin-treated group; FIG. 13A
Method: as §1
The levels of TNF-α and interleukin (IL)-6 were measured using respective mouse ELISA kits (Invitrogen, Waltham, MA, USA). IL-1β and GDF-15 levels were measured using respective Quantikine ELISA kits (R&D Systems, Minneapolis, MN, USA).
The protein concentration of the pro-inflammatory cytokine TNF-α in the plasma of mice was analyzed by ELISA.

[4] = system: Balb/c mice with colon-26 carcinoma-induced cachexia; assay: Body weight and muscle mass in Balb/c mice with colon-26 carcinoma-induced cachexia; conditions: colon-26 carcinoma-injected, paeoniflorin orally once daily for 9 days vs colon-26 carcinoma-injected group
Method: as §3, §4, §5
(§6) After completion of the experiment, the mice were euthanized, blood was collected therefrom, the body weight excluding tumors, and the weights of the hind limb gastrocnemius muscle and quadriceps muscle were measured. GDF-15 in the serum was quantified by ELISA.

[5] = system: muscle-specific ubiquitin E3 ligases (MuRF1 and MAFbx); assay: mRNA levels of MuRF1 and MAFbx in gastrocnemius muscle by real-time PCR; conditions: C57BL/6 mice, cisplatin-treated, Pae 10 and Pae 20 vs vehicle, FIG. 5
Method: as §1
Total RNA was isolated from skeletal muscle using Qiazol (Qiagen, Germany), and then the mRNA levels of pro-inflammatory cytokines and muscle-specific ubiquitin E3 ligases (MuRF1 and MAFbx) were measured by real-time PCR.
as §2

NF-κB = assay: Target DNA binding activity of NF-κB in skeletal muscle (TransAM NF-κB ELISA); conditions: gastrocnemius muscle; C57BL/6 mice; cisplatin-treated; Pae 10 and Pae 20; FIG. 12C
Method: Nuclear and cytoplasmic lysates were prepared from the skeletal muscle using a nuclear extraction kit (Active Motif, Carlsbad, CA, USA). The protein concentration of both lysates was measured using the BCA Protein Assay Kit (Pierce). Anti-NF-κB p65 was used as the primary antibody, and 10 μg of protein per lysate was analyzed by Western blotting. TBP (TATA box-binding protein) and β-actin were as controls for the nuclear and cytosolic lysates, respectively. The target DNA binding activity of NF-κB was measured using the TransAM NF-κB ELISA kit (Active Motif, USA).

[6] = system: C57BL/6 mice with Lewis lung carcinoma-induced cachexia; assay: Body weight and muscle mass in C57BL/6 mice with Lewis lung carcinoma-induced cachexia
Method: as §3, §4
Each mouse of the control group was injected subcutaneously with 100 μL of saline solution. For the cachexia-induced groups, Lewis lung carcinoma cells (C57BL/6 mice) or colon-26 carcinoma cells (Balb/c mice) were injected subcutaneously into the flank area of each mouse at a dose of 10^6 cells/100 μL/mouse. After 2 weeks, when a distinct tumor was formed, the tumor cell-injected group was orally administered distilled water, the tumor cell-injected and existing drug-administered group was orally administered megestrol acetate (MA), which is currently most commonly prescribed for cancer cachexia patients in clinical practice, at a dose of 160 mg/kg (=800 mg [daily human dose]/60 kg [average human body weight]×12 [dose equivalent factor based on human:mouse body surface area ratio], once daily for 9 days, and the tumor cell-injected and paeoniflorin-administered groups were orally administered paeoniflorin (prepared in Example 1) once daily for 9 days at doses of 5 (Pae 5 group), 10 (Pae 10 group) and 20 (Pae 20 group) mg/kg, respectively. After completion of 9 days of administration, the muscle strength of the mice was measured using a grip strength test device (Bioseb, USA), and the endurance of the mice was measured using a treadmill device (Columbus Instrument, USA).
as §6

[7] = Lewis lung carcinoma C57BL/6 mice, paeoniflorin 10 to 20 mg/kg/day vs megestrol acetate 160 mg/kg/day

C[C@@]12C[C@@]3(O)O[C@@H](O1)[C@]1(COC(=O)c4ccccc4)[C@H]3C[C@@]12O[C@@H]1O[C@H](CO)[C@@H](O)[C@H](O)[C@H]1O [paeoniflorin]
MyHC protein level ([1]; FIGS. 6C, 7A): increased | MyoD protein level ([1]; FIGS. 6D, 7B): increased | muscle strength ([2]; C57BL/6 mice, Lewis lung carcinoma-injected, paeoniflorin orally for 9 days, FIG. 16A): significantly increased | endurance ([2]; C57BL/6 mice, Lewis lung carcinoma-injected, paeoniflorin orally for 9 days, FIG. 16B): significantly increased | effect on muscle function compared with megestrol acetate (MA) [2, 7]: better effect | muscle strength ([3]; FIG. 17A): significantly increased | endurance ([3]; FIG. 17B): significantly increased | plasma concentration of TNF-α (TNF-α): significantly decreased | body weight ([4]; FIG. 15A): significantly increased | weight of gastrocnemius muscle ([4]; FIG. 15B): significantly increased | weight of quadriceps muscle ([4]; FIG. 15C): significantly increased | MAFbx mRNA level [5]: decreased | MuRF1 mRNA level [5]: decreased | target DNA binding activity of NF-κB (NF-κB): decreased | body weight ([6]; C57BL/6 mice, Lewis lung carcinoma-injected, paeoniflorin orally once daily for 9 days vs Lewis lung carcinoma-injected group, FIG. 14A): significantly increased | weight of gastrocnemius muscle ([6]; C57BL/6 mice, Lewis lung carcinoma-injected, paeoniflorin orally once daily for 9 days vs Lewis lung carcinoma-injected group, FIG. 14B): significantly increased | weight of quadriceps muscle ([6]; C57BL/6 mice, Lewis lung carcinoma-injected, paeoniflorin orally once daily for 9 days vs Lewis lung carcinoma-injected group, FIG. 14C): significantly increased | effect on body weight and muscle mass compared with megestrol acetate (MA) [6, 7]: better effect
